The source of these data is patent publication US20210186927A1, “COMBINATION PRODUCT FOR THE INDUCTION AND/OR MAINTENANCE OF GENERAL ANESTHESIA” (priority 2018, published 2021).

Test [1] relates to male Sprague Dawley rats. The test is classed as in vivo, rat. As to the method:
The spontaneous righting reflex: Before and at a series of set time points following each bolus injection, the animal was placed on its back and righting time measured. Righting normally occurs under 15 seconds. Whenever the animal was unable to right itself, it was considered that the spontaneous righting reflex had been lost and unconsciousness induced.
Duration of unconsciousness: The time lapse since the loss of the spontaneous righting reflex until its recovery was recorded and considered a measurement of the overall duration of unconsciousness.

In test [2] the test system is male Sprague Dawley rats. In kind it is in vivo, rat. The procedure:
Decreases in spontaneous locomotor and/or exploratory activity: Immediately after administration of each bolus injection, the animal was assessed for any changes in spontaneous locomotor and/or exploratory activity. […] If the spontaneous righting reflex (see here below) had not been lost after dosing but sedation was observed, the animal was monitored at regular intervals to assess the duration of the induced sedation.
The source holds these as a separate data set.

Another test addresses DOR (Homo sapiens, UniProt P41143). The note with it: cited from earlier work.
The test system of test [3] is rats. The note with it: 0.25-2 mg/kg i.p.; cited from earlier work.
For test [4], the system named is mice. The note with it: cited from earlier work.
In the next test the test system is monkeys. The note with it: drug-discrimination study; cited from earlier work.
Test [5] concerns rats. The note with it: 10 mg/kg i.p.; cited from earlier work.
Test [6] relates to rats. The note with it: cited from earlier work.
In a further test the target is MOR (Homo sapiens, UniProt P35372). The note with it: cited from earlier work.
In test [7] the test system is mice. The note with it: 0.5-2 mg/kg i.p.; cited from earlier work.
The next test concerns healthy humans. The note with it: cited from earlier work.
Another test addresses KOR (Homo sapiens, UniProt P41145). The note with it: cited from earlier work.
The next test concerns Rhesus monkeys. The note with it: cited from earlier work.
Test [8] deals with rats. The note with it: 1.0-3.0 mg/kg i.p.; cited from earlier work.

Like-named read-outs stand apart in the source and are kept apart here.

Sequence of KOR (P41145 whole entry): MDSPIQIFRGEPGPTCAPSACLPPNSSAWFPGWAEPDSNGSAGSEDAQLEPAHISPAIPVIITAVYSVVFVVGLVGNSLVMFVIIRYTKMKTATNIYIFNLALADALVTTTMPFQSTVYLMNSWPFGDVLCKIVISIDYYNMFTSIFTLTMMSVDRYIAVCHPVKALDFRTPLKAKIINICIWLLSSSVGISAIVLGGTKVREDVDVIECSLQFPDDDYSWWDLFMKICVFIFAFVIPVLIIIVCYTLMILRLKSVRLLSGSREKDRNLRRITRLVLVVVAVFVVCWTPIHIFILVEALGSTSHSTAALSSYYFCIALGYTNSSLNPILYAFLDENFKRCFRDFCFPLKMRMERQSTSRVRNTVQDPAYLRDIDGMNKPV
Sequence of MOR (P35372 whole entry): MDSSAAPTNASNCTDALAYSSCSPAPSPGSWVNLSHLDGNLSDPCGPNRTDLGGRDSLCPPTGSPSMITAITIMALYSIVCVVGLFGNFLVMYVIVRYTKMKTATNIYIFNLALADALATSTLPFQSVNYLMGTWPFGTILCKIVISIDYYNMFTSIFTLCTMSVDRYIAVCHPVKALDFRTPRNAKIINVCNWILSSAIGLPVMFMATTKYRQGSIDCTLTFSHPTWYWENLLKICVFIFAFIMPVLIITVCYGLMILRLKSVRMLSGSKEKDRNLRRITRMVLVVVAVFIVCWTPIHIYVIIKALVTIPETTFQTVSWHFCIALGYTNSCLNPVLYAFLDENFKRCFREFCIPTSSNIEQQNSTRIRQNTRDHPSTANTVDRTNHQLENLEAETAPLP
Sequence of DOR (P41143 whole entry): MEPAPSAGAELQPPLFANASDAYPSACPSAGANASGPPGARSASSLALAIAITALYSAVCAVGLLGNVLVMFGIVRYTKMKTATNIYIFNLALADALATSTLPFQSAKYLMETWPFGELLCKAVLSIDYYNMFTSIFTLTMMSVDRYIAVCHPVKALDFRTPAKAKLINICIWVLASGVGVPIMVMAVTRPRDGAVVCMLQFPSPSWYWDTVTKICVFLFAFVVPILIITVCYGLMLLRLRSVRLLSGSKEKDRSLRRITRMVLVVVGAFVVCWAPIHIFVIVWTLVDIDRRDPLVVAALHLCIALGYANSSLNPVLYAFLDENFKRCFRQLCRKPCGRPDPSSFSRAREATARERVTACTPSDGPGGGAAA

In the case of `Cc1cccc(C(C)c2cnc[nH]2)c1C` (centres unmarked) [medetomidine, Medetomidine, reference compound], in the test on male Sprague Dawley rats [1] (rat, in vivo), the “loss of consciousness or general anesthesia” value (shortened to “loss”) was “did not induce loss of consciousness or general anesthesia” and the “righting time (spontaneous righting reflex)” value (“righting time” below) lay within 2 to 3 s. In the test on male Sprague Dawley rats [2] (rat, in vivo), the sedation entry was “sedative effect”, the sedation lasted until turned out to be 30 min and the “time to sedation after the injection” value was 30 s.

With `COC(=O)[C@@H]1C[C@H](OC(C)=O)C(=O)[C@H]2[C@@]1(C)CC[C@H]1C(=O)O[C@H](c3ccoc3)C[C@]21C` [SA, Salvinorin A], at DOR, the “affinity for the DOR” value is “no affinity”. Moreover, the “loss” value in the test with male Sprague Dawley rats [1] (SA alone 6.2 mg/kg i.v.), with male Sprague Dawley rats [1] (SA alone 6.4 mg/kg i.p.), with male Sprague Dawley rats [1] (SA alone 12.0 mg/kg i.v.) and in the test on male Sprague Dawley rats [1] (SA alone 12.9 mg/kg i.p.) was “no loss of consciousness or general anesthesia” throughout. The “righting time” value in the test with male Sprague Dawley rats [1] (SA alone 6.2 mg/kg i.v., 10 minutes after injection) is 8 s; with male Sprague Dawley rats [1] (SA alone 6.4 mg/kg i.p., 1-40 min after injection), 1 to 2 s; in the test with male Sprague Dawley rats [1] (SA alone 12.0 mg/kg i.v., 5 minutes after injection) it was 12 s; with male Sprague Dawley rats [1] (SA alone 12.9 mg/kg i.p., 1-40 min after injection), 1 to 2 s. Moreover, the “immobility in the forced swimming test” value in the test on rats [3] was “increased immobility”. Also, the analgesic effects entry with mice [4] (7.5 μg intracerebroventricularly) was “active”; with mice [4] (5 mg/kg i.p.), “no analgesic effects”. The antinociceptive effects entry with mice [4] (0.5-4 mg/kg intraperitoneally) is “dose-dependent antinociceptive effects”; with rats [5], “no effects”. The “generalization between SA and ketamine” value in the test with monkeys is “did not find that any generalization between the two drugs is applicable”. Further, the “time at which locomotor and exploratory activity were comparable to pre-injection values” in the test with male Sprague Dawley rats [2] (SA alone 6.2 mg/kg i.v.) and in the test on male Sprague Dawley rats [2] (SA alone 12.0 mg/kg i.v.) was 30 min throughout. Besides, the sedation result with male Sprague Dawley rats [2] (SA alone 6.2 mg/kg i.v., Example 2 Rat number 2) is “mild sedation”; in the test on male Sprague Dawley rats [2] (SA alone 6.4 mg/kg i.p., Example 1 Rat number 2), “light sedation”; in the test on male Sprague Dawley rats [2] (SA alone 12.0 mg/kg i.v., Example 2 Rat number 3) it was “mild sedation”; with male Sprague Dawley rats [2] (SA alone 12.9 mg/kg i.p., Example 1 Rat number 3), “slight sedation of longer duration”; with Rhesus monkeys (0.032 mg/kg i.v.), “sedative effects”; in the test with Rhesus monkeys (0.032 mg/kg s.c.), “did not lead to overt sedation”. The sedation result in the test with Rhesus monkeys (i.v., maximum dose of 0.1 mg/kg) is listed as “sedative effects”. The entries for the “time at which locomotor and exploratory activity were comparable to baseline” value in the test with male Sprague Dawley rats [2] (SA alone 6.4 mg/kg i.p.) and with male Sprague Dawley rats [2] (SA alone 12.9 mg/kg i.p.) were 30 min and 40 min, respectively. For the same compound, in the test on rats [6] (0.25-2 mg/kg i.p., rats), the “effect on spontaneous locomotor activity” value is reported as “did not affect spontaneous locomotor activity”. The “effect on locomotor activity” value with rats [6] (0.4 and 0.64 mg/kg subcutaneously, rats) is reported as “had no effects”; with rats [6] (repeated daily injections of 2 mg/kg i.p.), “increased locomotor activity”; with rats [6] (single 2 mg/kg i.p.), “no effect”. Also, on MOR, the “affinity for the MOR” value is “no affinity”. Also, the sedation and coordination entry with mice [7] is “mild sedation and a loss of coordination”. In addition, the “acute effects in humans” value in the test on healthy humans (acute administration to humans) is “intense visual and auditory hallucinations without loss of consciousness”. The “dose at which the effects are already noticeable” value in the test with healthy humans (humans) is recorded as 0.25 mg. In the test with healthy humans (humans), the “psychometric measurements of sedation (PCAG subscale of the Addiction Research Center Inventory)” value is recorded as “no significant dose-dependent increases”. The “affinity and potency values at the KOR” value on KOR is reported as “nanomolar range”. The “type of activity at the KOR” value at KOR is recorded as “full agonist”. Moreover, in the test on rats [8], the “changes in response rates” value was “No significant changes”.

For the compound `CN1C(=O)CN=C(c2ccccc2)c2cc(Cl)ccc21` [diazepam, Diazepam, reference compound], in the test on male Sprague Dawley rats [1] (rat, in vivo), the “loss” value is on record as “did not induce loss of consciousness or general anesthesia” and the “righting time” value lay within 2 to 3 s. In addition, in the test on male Sprague Dawley rats [2] (rat, in vivo), the sedation entry is listed as “clear sedation”; the “time of full recovery of spontaneous locomotor and exploratory activity” value is on record as 1 h; the “time of partial recovery of spontaneous locomotor and exploratory activity” value worked out at 30 min; the “time to decrease in spontaneous locomotor and exploratory activity” value stood at 1 min. For the same compound, the time to sedation entry in the test on male Sprague Dawley rats [2] (rat, in vivo) is on record as “immediately after the end of the injection”.
